Reference: patent US12622909B2, “Allosteric EGFR inhibitors and methods of use thereof” (Dana-Farber Cancer Institute, Inc., priority 2019, dated 2026)
Like-named read-outs stand apart in the source and are kept apart here.

What was measured:
EGFR L858R/T790M = EGFR L858R/T790M (Homo sapiens, UniProt P00533, L858R/T790M); assay: HTRF-based EGFR biochemical assay (L858R/T790M); details: 100 μM ATP, enzyme 0.02 nM
Protocol: (§1) EGFR biochemical activity measurements were carried out using the homogeneous time-resolved fluorescence (HTRF) assay (Cisbio). Inhibitors and DMSO normalizations were first dispensed to empty black low-volume 384-well plates (Corning) with D300 digital liquid dispenser (HP). All reactions were carried out at room temperature and solutions were added to plates with a Multidrop Combi Reagent Dispenser (ThermoFisher). The reaction mixture (10 μL final volume) contained 1 μM tyrosine kinase peptide-biotin substrate and mutant EGFR in a reaction buffer (50 mM HEPES pH 7.0, 5 mM MgCl2, 1 mM MnCl2, 0.01% BSA, 2 mM TCEP, 0.1 mM NaVO4). […] Enzyme reaction solution (2× concentrations, 5 μL) was added to 384-well plates containing compounds and incubated for 30 mins. Enzyme reactions were initiated with the addition of 5 μL of ATP to a final concentration of 100 μM and reacted for 20 mins.

EGFR L858R = EGFR L858R (Homo sapiens, UniProt P00533, L858R); assay: HTRF-based EGFR biochemical assay (L858R); details: 100 μM ATP, enzyme 0.1 nM
Protocol: as §1, with “20 mins. Reactions were quenched with the addition of 10 μL of phospho-tyrosine antibody-Europium(III) cryptate (1-to-180 volume ratio) and Streptavidin-XL665 (46.7 nM) in EDTA-containing detection buffer, then incubated at room temperature for 1 hour, and read with a PHERAstar plate reader (excitation=337 nm, emission=620 nm and 665 nm).” for “20 mins.”

[1] = target: EGFR L858R/T790M mutant Ba/F3 cells (Homo sapiens, UniProt P00533, T790M/L858R, cells depend on it); assay: Ba/F3 cell proliferation (Cell Titer Glo); format: cell-based, murine; details: 72 hours
Description: All cell lines were maintained in RPMI 1640 (Cellgro; Mediatech Inc., Herndon, CA) supplemented with 10% FBS, 100 units/mL penicillin, 100 units/mL streptomycin. The EGFR I941R mutation was introduced via site directed mutagenesis using the Quick Change Site-Directed Mutagenesis kit (Stratagene; La Jolla, CA) according to the manufacturer's instructions. All constructs were confirmed by DNA sequencing. The constructs were shuttled into the retroviral vector JP1540 using the Cre-recombination system (Agilent Technologies, Santa Clara, CA). Ba/F3 cells were then infected with retrovirus per standard protocols, as described previously (Zhou, et al, Nature 2009). Stable clones were obtained by selection in puromycin (2 μg/ml).
Growth and inhibition of growth was assessed by the Cell Titer Glo assay (Promega, Madison, WI) and was performed according to the manufacturer's instructions. The Cell Titer Glo assay is a luminescence-based method used to determine the number of viable cells based on quantitation of the ATP present, which is directly proportional to the amount of metabolically active cells present. […] All experimental points were set up in triplicates in 384-well plates and all experiments were repeated at least three times. […] The curves were fitted using a non-linear regression model with a sigmoidal dose response.

[2] = in combination with 1 μg/ml cetuximab, read-out: Cell IC50 BaF3 L858R/T790M compound + cetuximab
[3] = single agent, read-out: Cell IC50 EGFR BaF3 L858R/T790M

Chain of EGFR L858R (P00533 25-1210 L858R): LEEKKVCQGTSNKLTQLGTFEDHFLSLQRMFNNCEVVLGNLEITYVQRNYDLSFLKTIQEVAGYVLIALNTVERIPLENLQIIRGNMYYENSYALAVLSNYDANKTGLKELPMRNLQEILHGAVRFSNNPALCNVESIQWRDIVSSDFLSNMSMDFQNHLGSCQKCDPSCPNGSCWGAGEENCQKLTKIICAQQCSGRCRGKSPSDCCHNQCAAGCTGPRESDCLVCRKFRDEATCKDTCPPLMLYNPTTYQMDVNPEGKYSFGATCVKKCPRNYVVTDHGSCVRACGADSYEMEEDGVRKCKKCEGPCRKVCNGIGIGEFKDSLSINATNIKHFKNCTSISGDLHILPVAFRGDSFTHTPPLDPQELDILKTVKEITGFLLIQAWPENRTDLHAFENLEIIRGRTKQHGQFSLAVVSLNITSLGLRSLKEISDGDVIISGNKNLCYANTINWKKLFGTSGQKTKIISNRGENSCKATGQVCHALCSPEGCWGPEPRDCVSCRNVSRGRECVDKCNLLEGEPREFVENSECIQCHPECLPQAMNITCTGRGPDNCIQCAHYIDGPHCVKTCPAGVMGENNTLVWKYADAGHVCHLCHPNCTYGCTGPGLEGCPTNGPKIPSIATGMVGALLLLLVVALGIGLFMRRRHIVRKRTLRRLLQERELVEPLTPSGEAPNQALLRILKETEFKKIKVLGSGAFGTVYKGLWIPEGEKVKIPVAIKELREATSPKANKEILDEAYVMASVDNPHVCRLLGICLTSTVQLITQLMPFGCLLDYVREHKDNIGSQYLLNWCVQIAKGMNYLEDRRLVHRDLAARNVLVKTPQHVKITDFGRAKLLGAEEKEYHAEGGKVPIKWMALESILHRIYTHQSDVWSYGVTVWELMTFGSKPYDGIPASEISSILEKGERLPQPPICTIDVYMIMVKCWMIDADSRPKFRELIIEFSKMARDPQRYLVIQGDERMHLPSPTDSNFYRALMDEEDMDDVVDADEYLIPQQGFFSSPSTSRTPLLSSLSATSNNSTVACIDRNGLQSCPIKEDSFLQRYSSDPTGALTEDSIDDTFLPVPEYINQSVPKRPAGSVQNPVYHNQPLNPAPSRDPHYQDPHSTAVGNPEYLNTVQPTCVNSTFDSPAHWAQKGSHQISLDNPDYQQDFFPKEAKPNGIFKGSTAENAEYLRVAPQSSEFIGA
Chain of EGFR L858R/T790M (P00533 25-1210 T790M/L858R): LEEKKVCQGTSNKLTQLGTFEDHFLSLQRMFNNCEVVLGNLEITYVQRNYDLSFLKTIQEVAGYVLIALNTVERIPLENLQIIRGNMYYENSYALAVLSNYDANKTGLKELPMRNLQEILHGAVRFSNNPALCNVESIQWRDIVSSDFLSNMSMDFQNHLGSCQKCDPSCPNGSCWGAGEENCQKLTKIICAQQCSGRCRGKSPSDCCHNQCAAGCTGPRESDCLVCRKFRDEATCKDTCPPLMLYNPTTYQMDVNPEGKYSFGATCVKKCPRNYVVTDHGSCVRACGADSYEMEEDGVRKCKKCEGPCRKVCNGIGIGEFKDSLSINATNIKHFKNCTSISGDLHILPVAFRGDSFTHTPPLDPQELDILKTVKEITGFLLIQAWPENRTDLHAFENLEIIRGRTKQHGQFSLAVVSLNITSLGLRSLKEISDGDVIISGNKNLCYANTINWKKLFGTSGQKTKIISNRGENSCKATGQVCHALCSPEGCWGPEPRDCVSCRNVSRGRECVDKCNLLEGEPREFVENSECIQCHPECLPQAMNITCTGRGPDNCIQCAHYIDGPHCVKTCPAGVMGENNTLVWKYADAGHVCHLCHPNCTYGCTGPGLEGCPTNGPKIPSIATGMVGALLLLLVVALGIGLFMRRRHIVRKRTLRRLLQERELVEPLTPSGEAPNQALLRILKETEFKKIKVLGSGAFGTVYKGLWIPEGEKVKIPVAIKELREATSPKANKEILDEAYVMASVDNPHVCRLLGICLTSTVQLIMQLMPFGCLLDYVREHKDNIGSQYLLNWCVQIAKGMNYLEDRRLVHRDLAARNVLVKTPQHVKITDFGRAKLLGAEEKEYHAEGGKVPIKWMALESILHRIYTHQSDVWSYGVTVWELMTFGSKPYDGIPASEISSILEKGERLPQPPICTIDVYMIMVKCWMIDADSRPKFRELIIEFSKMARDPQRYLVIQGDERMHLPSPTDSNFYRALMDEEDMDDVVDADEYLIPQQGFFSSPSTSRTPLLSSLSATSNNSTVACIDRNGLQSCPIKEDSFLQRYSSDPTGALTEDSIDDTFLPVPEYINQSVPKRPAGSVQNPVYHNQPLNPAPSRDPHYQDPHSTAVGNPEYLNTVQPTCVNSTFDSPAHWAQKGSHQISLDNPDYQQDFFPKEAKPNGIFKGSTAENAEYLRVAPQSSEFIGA
Chain of EGFR L858R/T790M mutant Ba/F3 cells (P00533 whole entry T790M/L858R): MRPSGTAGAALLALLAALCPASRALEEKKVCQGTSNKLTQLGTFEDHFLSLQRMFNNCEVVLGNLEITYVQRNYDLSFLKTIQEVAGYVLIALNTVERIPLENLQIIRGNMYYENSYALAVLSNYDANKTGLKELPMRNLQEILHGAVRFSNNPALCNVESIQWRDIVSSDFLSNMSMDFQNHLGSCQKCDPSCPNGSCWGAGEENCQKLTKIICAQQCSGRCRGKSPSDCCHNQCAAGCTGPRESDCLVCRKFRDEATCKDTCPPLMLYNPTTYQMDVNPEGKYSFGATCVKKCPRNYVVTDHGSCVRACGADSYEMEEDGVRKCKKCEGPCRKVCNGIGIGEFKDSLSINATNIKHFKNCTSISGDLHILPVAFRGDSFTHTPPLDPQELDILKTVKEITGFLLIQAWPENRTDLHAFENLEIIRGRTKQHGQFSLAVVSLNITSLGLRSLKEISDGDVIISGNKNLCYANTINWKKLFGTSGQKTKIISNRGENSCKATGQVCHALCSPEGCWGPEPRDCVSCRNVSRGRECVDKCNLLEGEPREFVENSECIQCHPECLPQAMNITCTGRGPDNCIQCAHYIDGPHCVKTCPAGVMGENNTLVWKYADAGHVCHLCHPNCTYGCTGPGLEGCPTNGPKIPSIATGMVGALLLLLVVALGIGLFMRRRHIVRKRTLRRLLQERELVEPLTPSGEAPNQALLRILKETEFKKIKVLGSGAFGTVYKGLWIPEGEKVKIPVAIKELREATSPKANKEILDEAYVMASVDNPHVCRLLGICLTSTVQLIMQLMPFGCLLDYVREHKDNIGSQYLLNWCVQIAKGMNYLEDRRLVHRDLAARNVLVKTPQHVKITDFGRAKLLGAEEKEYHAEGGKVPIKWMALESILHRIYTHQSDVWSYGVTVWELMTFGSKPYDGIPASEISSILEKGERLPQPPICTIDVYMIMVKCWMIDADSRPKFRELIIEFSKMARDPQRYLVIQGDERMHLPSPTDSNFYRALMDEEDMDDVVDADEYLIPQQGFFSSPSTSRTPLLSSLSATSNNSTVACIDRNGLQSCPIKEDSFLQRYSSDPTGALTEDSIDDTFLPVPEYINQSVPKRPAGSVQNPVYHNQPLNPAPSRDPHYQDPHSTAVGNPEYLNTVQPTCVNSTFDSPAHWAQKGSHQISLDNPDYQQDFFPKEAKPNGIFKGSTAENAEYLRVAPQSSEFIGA

## CN1CCC(c2ccc(-c3ccc4ncn(C(C(=O)Nc5ccccn5)c5ccccc5)c(=O)c4c3)cc2)CC1 (stereo not drawn) [Compound 038, 2-(6-(4-(1-Methylpiperidin-4-yl)-phenyl)-4-oxaquinazolin-3(4H)-yl)-2-phenyl-N-(pyridin-2-yl)acetamide]
EGFR L858R/T790M
  IC50: 2 nM
EGFR L858R
  IC50: 9 nM
[1]; [2]
  GI50: 57 nM
[1]; [3]
  GI50: 1860 nM

## Cc1nc2ccc(-c3ccc(N4CCN(C)CC4)cc3)cc2c(=O)n1C(C(=O)Nc1nccs1)c1ccccc1 (stereo not drawn) [Compound 045, 2-(2-Methyl-6-(4-(4-methylpiperazin-1-yl)phenyl)-4-oxoquinazolin-3(4H)-yl)-2-phenyl-N-(thiazol-2-yl)-acetamide]
EGFR L858R/T790M
  IC50: 297 nM
EGFR L858R
  IC50: > 1000 nM
[1]; [2]
  GI50: 4100 nM
[1]; [3]
  GI50: 4100 nM

## O=C(Nc1nccs1)C(c1ccccc1)n1cnc2ccc(Br)cc2c1=O (stereo not drawn) [Compound 002, 2-(6-Bromo-4-oxoquinazolin-3(4H)-yl)-2-phenyl-N-(thiazol-2-yl)-acetamide]
EGFR L858R/T790M
  IC50: 35 nM
EGFR L858R
  IC50: 275 nM
[1]; [2]
  GI50: 980 nM
[1]; [3]
  GI50: > 10000 nM

## CN1CCN(c2ccc(-c3ccc4c(=O)n(C(C(=O)Nc5nccs5)c5ccccc5)ccc4c3)cc2)CC1 (stereo not drawn) [Compound 017, 2-(6-(4-(4-Methylpiperazin-1-yl)-phenyl)-1-oxoisoquinolin-2(1H)-yl)-2-phenyl-N-(thiazol-2-yl)acetamide]
EGFR L858R/T790M
  IC50: 3 nM
EGFR L858R
  IC50: 7 nM
[1]; [2]
  GI50: 62 nM
[1]; [3]
  GI50: 1270 nM

## CN1CCC(c2ccc(-c3cnc4c(=O)n(C(C(=O)Nc5nccs5)c5ccccc5)cnc4c3)cc2)CC1 (stereo not drawn) [Compound 056, 2-(7-(4-(1-Methylpiperidin-4-yl)phenyl)-4-oxopyrido[3,2-d]pyrimidin-3(4H)-yl)-2-phenyl-N-(thiazol-2-yl)acetamide]
EGFR L858R/T790M
  IC50: 7 nM
EGFR L858R
  IC50: 32 nM
[1]; [2]
  GI50: 410 nM
[1]; [3]
  GI50: 3970 nM

## CN1CCN(c2ccc(-c3ccc4cnn(C(C(=O)Nc5nccs5)c5ccccc5)c(=O)c4c3)cc2)CC1 (stereo not drawn) [Compound 043, 2-(7-(4-(4-Methylpiperazin-1-yl)-phenyl)-1-oxophthalazin-2(1H)-yl)-2-phenyl-N-(thiazol-2-yl)acetamide]
EGFR L858R/T790M
  IC50: 10 nM
EGFR L858R
  IC50: 90 nM
[1]; [2]
  GI50: 380 nM
[1]; [3]
  GI50: 2160 nM

## CN1CCC(c2ccc(-c3ccc4c(=O)n(C(C(=O)Nc5nccs5)c5ccccc5)ncc4c3)cc2)CC1 (stereo not drawn) [Compound 026, 2-(6-(4-(1-Methylpiperidin-4-yl)-phenyl)-1-oxophthalazin-2(1H)-yl)-2-phenyl-N-(thiazol-2-yl)acetamide]
EGFR L858R/T790M
  IC50: 10 nM
EGFR L858R
  IC50: 67 nM
[1]; [2]
  GI50: 560 nM
[1]; [3]
  GI50: 1220 nM

## CN1CCC(c2ccc(-c3ccc4ncn(C(C(=O)Nc5nccs5)c5cccc(F)c5)c(=O)c4c3)cc2)CC1 (stereo not drawn) [Compound 030, 2-(3-Fluorophenyl)-2-(6-(4-(1-methyl-piperidin-4-yl)phenyl)-4-oxo-quinazolin-3(4H)-yl)-N-(thiazol-2-yl)-acetamide]
EGFR L858R/T790M
  IC50: 1 nM
EGFR L858R
  IC50: 7 nM
[1]; [2]
  GI50: 4 nM
[1]; [3]
  GI50: 800 nM

## CN1CCN(c2ccc(-c3cnc4ncn(C(C(=O)Nc5nccs5)c5ccccc5)c(=O)c4c3)cc2)CC1 (stereo not drawn) [Compound 059, 2-(6-(4-(4-Methylpiperazin-1-yl)-phenyl)-4-oxopyrido[2,3-d]-pyrimidin-3(4H)-yl)-2-phenyl-N-(thiazol-2-yl)acetamide]
EGFR L858R/T790M
  IC50: 8 nM
EGFR L858R
  IC50: 48 nM
[1]; [2]
  GI50: 84 nM
[1]; [3]
  GI50: 1370 nM

## CN1CCC(c2ccc(-c3ccc4ncn(C(C(=O)Nc5nccs5)c5ccccc5)c(=O)c4c3)cc2)CC1 (stereo not drawn) [Compound 014, 2-(6-(4-(1-Methylpiperidin-4-yl)-phenyl)-4-oxoquinazolin-3(4H)-yl)-2-phenyl-N-(thiazol-2-yl)acetamide]
EGFR L858R/T790M
  IC50: 0.2 nM
EGFR L858R
  IC50: 3 nM
[1]; [2]
  GI50: 5 nM
[1]; [3]
  GI50: 510 nM

## O=C(Nc1nccs1)C(c1ccccc1)n1cc(F)c2cc(Br)ccc2c1=O (stereo not drawn) [Compound 006, 2-(6-Bromo-4-fluoro-1-oxo-isoquinolin-2(1H)-yl)-2-phenyl-N-(thiazol-2-yl)acetamide]
EGFR L858R/T790M
  IC50: 36 nM
EGFR L858R
  IC50: > 1000 nM
[1]; [2]
  GI50: 1800 nM
[1]; [3]
  GI50: > 10000 nM

## CN1CCC(c2ccc(-c3ccc4ccn(C(C(=O)Nc5nccs5)c5ccccc5)c(=O)c4c3)cc2)CC1 (stereo not drawn) [Compound 018, 2-(7-(4-(1-Methylpiperidin-4-yl)-phenyl)-1-oxoisoquinolin-2(1H)-yl)-2-phenyl-N-(thiazol-2-yl)acetamide]
EGFR L858R/T790M
  IC50: 2 nM
EGFR L858R
  IC50: 12 nM
[1]; [2]
  GI50: 72 nM
[1]; [3]
  GI50: 1520 nM

## O=C(Nc1ccccn1)C(c1cccc(F)c1)n1cnc2ccc(Br)cc2c1=O (stereo not drawn) [Compound 034, 2-(6-Bromo-4-oxoquinazolin-3(4H)-yl)-2-(3-fluorophenyl)-N-(pyridin-2-yl)acetamide]
EGFR L858R/T790M
  IC50: 18 nM
EGFR L858R
  IC50: > 1000 nM
[1]; [2]
  GI50: 1800 nM
[1]; [3]
  GI50: > 10000 nM

## CN1CCN(c2ccc(-c3ccc4c(=O)n(C(C(=O)Nc5nccs5)c5ccccc5)ncc4c3)cc2)CC1 (stereo not drawn) [Compound 027, 2-(6-(4-(4-Methylpiperazin-1-yl)-phenyl)-1-oxophthalazin-2(1H)-yl)-2-phenyl-N-(thiazol-2-yl)acetamide]
EGFR L858R/T790M
  IC50: 18 nM
EGFR L858R
  IC50: 209 nM
[1]; [2]
  GI50: 1700 nM
[1]; [3]
  GI50: 3460 nM

## CN1CCN(c2ccc(-c3ccc4c(=O)n(C(C(=O)Nc5nccs5)c5cccc(F)c5)cnc4c3)cc2)CC1 (stereo not drawn) [Compound 029, 2-(3-Fluorophenyl)-2-(7-(4-(4-methyl-piperazin-1-yl)phenyl)-4-oxo-quinazolin-3(4H)-yl)-N-(thiazol-2-yl)-acetamide]
EGFR L858R/T790M
  IC50: 18 nM
EGFR L858R
  IC50: 91 nM
[1]; [2]
  GI50: 560 nM
[1]; [3]
  GI50: 3450 nM

## CN1CCN(c2ccc(-c3ccc4c(=O)n(C(C(=O)Nc5nccs5)c5ccccc5)cc(F)c4c3)cc2)CC1 (stereo not drawn) [Compound 023, 2-(4-Fluoro-6-(4-(4-methylpiperazin-1-yl)phenyl)-1-oxoisoquinolin-2(1H)-yl)-2-phenyl-N-(thiazol-2-yl)-acetamide]
EGFR L858R/T790M
  IC50: 3 nM
EGFR L858R
  IC50: 7 nM
[1]; [2]
  GI50: 110 nM
[1]; [3]
  GI50: 2410 nM

## O=C(Nc1nccs1)C(c1cccnc1)n1cnc2ccc(Br)cc2c1=O (stereo not drawn) [Compound 062, 2-(6-Bromo-4-oxoquinazolin-3(4H)-yl)-2-(pyridin-3-yl)-N-(thiazol-2-yl)-acetamide]
EGFR L858R/T790M
  IC50: 220 nM
EGFR L858R
  IC50: > 1000 nM
[1]; [2]
  GI50: > 10000 nM
[1]; [3]
  GI50: > 10000 nM

## CN1CCN(c2ccc(-c3ccc4ncn(C(C(=O)Nc5nccs5)c5c(O)cccc5F)c(=O)c4c3)cc2)CC1 (stereo not drawn) [Compound 085, 2-(2-Fluoro-6-hydroxyphenyl)-2-(6-(4-(4-methylpiperazin-1-yl)phenyl)-4-oxoquinazolin-3(4H)-yl)-N-(thiazol-2-yl)acetamide]
EGFR L858R/T790M
  IC50: 3 nM
EGFR L858R
  IC50: 6 nM
[1]; [2]
  GI50: 66 nM
[1]; [3]
  GI50: 5770 nM

## O=C(Nc1nccs1)C(c1ccccc1)n1ccc2cc(Br)ccc2c1=O (stereo not drawn) [Compound 003, 2-(6-Bromo-1-oxoisoquinolin-2(1H)-yl)-2-phenyl-N-(thiazol-2-yl)-acetamide]
EGFR L858R/T790M
  IC50: 16 nM
EGFR L858R
  IC50: 245 nM
[1]; [2]
  GI50: 2000 nM
[1]; [3]
  GI50: > 10000 nM

## O=C(Nc1nccs1)C(c1ccccc1)n1cnc2ccc(C#Cc3cccnc3)cc2c1=O (stereo not drawn) [Compound 061, 2-(4-Oxo-6-(pyridin-3-ylethynyl)quinazolin-3(4H)-yl)-2-phenyl-N-(thiazol-2-yl)acetamide]
[1]; [2]
  GI50: 28 nM
[1]; [3]
  GI50: 4520 nM
